These results are taken from patent publication US20170166598A1, “HETEROARYL COMPOUNDS FOR KINASE INHIBITION” (ARIAD PHARMACEUTICALS, INC., priority 2014, published 2017).

Common to all, as to type: cell-based
Experiment [1] concerns the target T1, human EGFR exon 20 insertion ASV (V769_D770insASV) (Homo sapiens, UniProt P00533, INS769ASV).
T1 construct: expressed in transfected cells; host or cells: Ba/F3 (murine pro-B) cells transduced with lentivirus from pLVX-IRES puro
The experiment can be described thus: Ba/F3-EGFR-Exon20-ASV cell anti-proliferative assay (CellTiter 96 MTS, 72 h). To be noted: Ba/F3-EGFR-Exon20-ASV cells. The protocol:
An expression vector, pLVX-IRES puro (Clontech) coding for human EGFR exon 20 insertions NPG (H773_V774insNPG) or ASV (V769_D770insASV), was transfected into HEK293 cells by the Trans-Lentiviral ORF Packaging System (Thermo Scientific), to produce virus encoding EGFR exon 20 insertions. Ba/F3 (DSMZ) cells maintained in RPMI 1640 medium supplemented with 10% fetal bovine serum, 200 μM L-glutamine/l 200 μg/mL penicillin/200 μg/mL streptomycin (Life Technology) and 10 ng/mL IL-3 (R&D system), were infected by EGFR Exon20 virus and subsequently selected by puromycin (Life Technology) selection and IL-3 depletion. […] The anti-proliferative activity of compounds were determined as follows: BaF3-EGFR-Exon20 cells (NPG or ASV) seeded in 96 well plates (2500 cells/well) were treated with test compound (dissolved in DMSO) at a series of concentrations (4-fold dilution, top concentration: 10,000 nM). The plates were incubated for 72 h in a 37° C. incubator with 5% CO2, and the number of viable cells in each well were measured indirectly by CellTiter 96® Aqueous One Solution Cell Proliferation Assay (Promega) This assay is a colorimetric method for determining the number of viable cells through measurement of their metabolic activity by detection of enzymatic conversion of tetrazolium salts into blue formazan derivatives. Reagent (20 μL) was added into each well, and the plates were returned to the incubator for 2 h. The absorbance in each well was then measured at 490 nm using an Envision plate reader (Perkin Elmer).

Experiment [2] deals with T2, human EGFR exon 20 insertion NPG (H773_V774insNPG) (Homo sapiens, UniProt P00533, INS772GNP).
T2 construct: expressed in transfected cells; host or cells: Ba/F3 (murine pro-B) cells transduced with lentivirus from pLVX-IRES puro
T2 sequence (P00533 with tags, fused parts or gaps INS772GNP): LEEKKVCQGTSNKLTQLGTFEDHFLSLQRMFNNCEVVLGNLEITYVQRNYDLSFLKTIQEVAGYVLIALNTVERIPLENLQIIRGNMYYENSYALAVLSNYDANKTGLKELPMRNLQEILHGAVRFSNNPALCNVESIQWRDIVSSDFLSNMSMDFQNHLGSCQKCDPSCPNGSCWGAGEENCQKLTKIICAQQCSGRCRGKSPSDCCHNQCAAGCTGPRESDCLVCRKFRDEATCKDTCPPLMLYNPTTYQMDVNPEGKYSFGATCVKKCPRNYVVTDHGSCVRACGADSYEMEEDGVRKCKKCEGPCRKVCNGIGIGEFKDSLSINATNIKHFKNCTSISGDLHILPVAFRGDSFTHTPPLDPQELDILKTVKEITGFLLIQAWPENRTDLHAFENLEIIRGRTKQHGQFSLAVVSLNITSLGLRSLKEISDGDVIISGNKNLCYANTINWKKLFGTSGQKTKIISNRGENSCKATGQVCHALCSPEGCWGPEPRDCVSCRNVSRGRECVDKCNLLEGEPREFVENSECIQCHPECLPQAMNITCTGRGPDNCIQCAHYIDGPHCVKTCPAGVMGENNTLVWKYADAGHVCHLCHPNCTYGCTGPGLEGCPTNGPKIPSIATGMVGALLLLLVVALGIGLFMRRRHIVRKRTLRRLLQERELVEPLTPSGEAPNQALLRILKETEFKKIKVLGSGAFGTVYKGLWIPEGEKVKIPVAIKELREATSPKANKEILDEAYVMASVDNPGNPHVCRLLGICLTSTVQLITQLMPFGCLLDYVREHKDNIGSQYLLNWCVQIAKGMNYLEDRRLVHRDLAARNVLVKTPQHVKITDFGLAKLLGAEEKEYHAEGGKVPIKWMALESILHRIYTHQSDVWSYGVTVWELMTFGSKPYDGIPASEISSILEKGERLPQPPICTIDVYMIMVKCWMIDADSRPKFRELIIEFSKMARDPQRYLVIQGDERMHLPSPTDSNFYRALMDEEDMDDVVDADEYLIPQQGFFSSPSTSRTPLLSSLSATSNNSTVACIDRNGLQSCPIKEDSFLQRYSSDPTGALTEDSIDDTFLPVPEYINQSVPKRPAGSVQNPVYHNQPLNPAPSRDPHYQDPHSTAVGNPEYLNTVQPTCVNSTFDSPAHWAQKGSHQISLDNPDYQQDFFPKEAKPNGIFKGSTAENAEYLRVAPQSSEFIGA
The experiment can be described thus: Ba/F3-EGFR-Exon20-NPG cell anti-proliferative assay (CellTiter 96 MTS, 72 h). To be noted: Ba/F3-EGFR-Exon20-NPG cells. A digest of the protocol:
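Viable-cell readout used absorbance at 490 nm of MTS-derived formazan, 2 h after reagent addition, following 72 h compound treatment at 37 °C, 5% CO2. Cells: puromycin-selected, IL-3-depleted Ba/F3 expressing EGFR exon 20 ASV or NPG; dosing 4-fold series from 10,000 nM.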

The target of experiment [3] is T3, Her2 exon 20 YVMA insertion (A775_G776ins YVMA) (Homo sapiens, UniProt P04626, INS775YVMA).
T3 construct: expressed in transfected cells; host or cells: Ba/F3 (murine pro-B) cells transduced with lentivirus from pLVX-IRES puro
T3 sequence (P04626 with tags, fused parts or gaps INS775YVMA): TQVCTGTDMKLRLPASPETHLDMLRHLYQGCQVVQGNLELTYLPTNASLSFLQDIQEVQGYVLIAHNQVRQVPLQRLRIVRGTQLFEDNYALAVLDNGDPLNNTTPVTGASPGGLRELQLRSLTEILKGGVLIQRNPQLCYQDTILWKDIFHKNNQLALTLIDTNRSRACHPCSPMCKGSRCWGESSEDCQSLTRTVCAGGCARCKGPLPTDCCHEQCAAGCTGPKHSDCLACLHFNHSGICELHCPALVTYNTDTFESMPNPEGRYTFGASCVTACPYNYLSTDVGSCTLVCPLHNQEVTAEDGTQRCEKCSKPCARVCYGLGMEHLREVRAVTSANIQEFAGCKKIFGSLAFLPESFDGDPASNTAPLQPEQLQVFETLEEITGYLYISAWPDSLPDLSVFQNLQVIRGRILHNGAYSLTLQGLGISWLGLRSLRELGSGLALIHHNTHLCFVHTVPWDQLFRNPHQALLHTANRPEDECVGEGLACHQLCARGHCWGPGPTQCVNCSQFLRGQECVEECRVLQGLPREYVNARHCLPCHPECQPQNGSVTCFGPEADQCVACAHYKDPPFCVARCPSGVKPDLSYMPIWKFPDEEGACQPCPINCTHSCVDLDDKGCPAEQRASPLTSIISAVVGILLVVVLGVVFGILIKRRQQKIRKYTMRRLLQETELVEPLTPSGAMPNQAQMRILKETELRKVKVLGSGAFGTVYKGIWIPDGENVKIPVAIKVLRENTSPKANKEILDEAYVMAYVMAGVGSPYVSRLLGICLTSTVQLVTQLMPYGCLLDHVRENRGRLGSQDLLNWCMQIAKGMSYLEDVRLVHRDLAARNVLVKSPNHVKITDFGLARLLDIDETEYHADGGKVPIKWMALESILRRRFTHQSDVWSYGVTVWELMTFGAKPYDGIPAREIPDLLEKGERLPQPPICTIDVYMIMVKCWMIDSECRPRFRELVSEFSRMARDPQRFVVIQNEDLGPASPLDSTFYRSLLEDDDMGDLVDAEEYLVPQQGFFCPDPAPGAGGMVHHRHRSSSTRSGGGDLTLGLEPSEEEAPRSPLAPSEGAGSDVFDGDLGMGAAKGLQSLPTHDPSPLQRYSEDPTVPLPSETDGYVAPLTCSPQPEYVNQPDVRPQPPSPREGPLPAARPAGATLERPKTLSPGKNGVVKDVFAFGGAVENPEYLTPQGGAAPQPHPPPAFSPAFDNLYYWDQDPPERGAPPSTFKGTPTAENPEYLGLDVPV
The experiment can be described thus: Ba/F3-Her2 Exon20 YVMA cell anti-proliferative assay (CellTiter 96 MTS, 72 h). To be noted: Ba/F3-Her2 Exon20 YVMA cells. A digest of the protocol:
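Anti-proliferation: compound series (top 10,000 nM, 4-fold steps) was applied to Ba/F3-Her2 Exon20 YVMA cells grown without IL-3 for 72 h. Viability was read colorimetrically (CellTiter 96 Aqueous One, A490, 2 h reagent incubation).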

For experiment [4], the target named is T4, human EGFR E746-A750 deletion and T790M Mutation (Homo sapiens, UniProt P00533, DEL746-750/T790M).
T4 construct: expressed in transfected cells; host or cells: Ba/F3 (murine pro-B) cells transduced with lentivirus from pLVX-IRES puro
T4 sequence (P00533 with tags, fused parts or gaps DEL746-750/T790M): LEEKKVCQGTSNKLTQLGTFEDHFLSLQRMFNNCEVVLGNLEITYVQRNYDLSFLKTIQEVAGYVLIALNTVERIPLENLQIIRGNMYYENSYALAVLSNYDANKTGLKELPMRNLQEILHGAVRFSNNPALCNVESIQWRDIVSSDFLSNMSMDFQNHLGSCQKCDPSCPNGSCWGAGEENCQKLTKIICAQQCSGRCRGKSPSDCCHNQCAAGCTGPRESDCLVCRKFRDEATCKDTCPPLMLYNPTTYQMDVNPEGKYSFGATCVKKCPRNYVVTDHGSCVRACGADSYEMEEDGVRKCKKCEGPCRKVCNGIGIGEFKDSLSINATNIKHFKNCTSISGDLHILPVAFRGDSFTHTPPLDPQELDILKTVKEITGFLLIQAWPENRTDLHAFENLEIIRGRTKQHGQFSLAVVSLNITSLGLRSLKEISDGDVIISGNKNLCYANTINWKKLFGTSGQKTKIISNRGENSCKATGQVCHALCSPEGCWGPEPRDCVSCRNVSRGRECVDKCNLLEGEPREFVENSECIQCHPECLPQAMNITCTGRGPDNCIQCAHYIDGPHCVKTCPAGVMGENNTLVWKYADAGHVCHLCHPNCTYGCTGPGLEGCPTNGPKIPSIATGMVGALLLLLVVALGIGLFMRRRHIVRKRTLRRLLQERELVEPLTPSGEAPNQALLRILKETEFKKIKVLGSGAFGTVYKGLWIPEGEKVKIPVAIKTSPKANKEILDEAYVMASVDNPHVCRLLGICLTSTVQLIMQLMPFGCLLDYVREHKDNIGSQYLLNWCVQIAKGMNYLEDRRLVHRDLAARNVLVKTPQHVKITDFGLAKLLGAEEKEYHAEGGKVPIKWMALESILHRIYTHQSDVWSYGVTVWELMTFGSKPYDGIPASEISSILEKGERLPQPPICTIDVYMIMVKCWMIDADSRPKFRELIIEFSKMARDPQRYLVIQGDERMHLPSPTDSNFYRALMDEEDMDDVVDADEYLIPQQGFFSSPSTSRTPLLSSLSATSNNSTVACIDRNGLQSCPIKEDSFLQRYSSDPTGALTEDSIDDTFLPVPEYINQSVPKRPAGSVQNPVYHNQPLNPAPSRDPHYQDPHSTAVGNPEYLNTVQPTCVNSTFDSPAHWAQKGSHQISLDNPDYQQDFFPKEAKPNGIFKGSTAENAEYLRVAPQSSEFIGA
The experiment in a line: Ba/F3-EGFR-Del/T790M cell anti-proliferative assay (CellTiter 96 MTS, 72 h). To be noted: Ba/F3-EGFR-Del/T790M cells. A digest of the protocol: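 Compound exposure: 72 h, 37 °C, 4-fold series topping at 10,000 nM. Target cells are Ba/F3 transduced with EGFR exon 19 deletion plus T790M, selected by puromycin and IL-3 withdrawal. Viable cell number inferred from MTS metabolic conversion, A490 read 2 h after reagent addition.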

T1 sequence (P00533 with tags, fused parts or gaps INS769ASV): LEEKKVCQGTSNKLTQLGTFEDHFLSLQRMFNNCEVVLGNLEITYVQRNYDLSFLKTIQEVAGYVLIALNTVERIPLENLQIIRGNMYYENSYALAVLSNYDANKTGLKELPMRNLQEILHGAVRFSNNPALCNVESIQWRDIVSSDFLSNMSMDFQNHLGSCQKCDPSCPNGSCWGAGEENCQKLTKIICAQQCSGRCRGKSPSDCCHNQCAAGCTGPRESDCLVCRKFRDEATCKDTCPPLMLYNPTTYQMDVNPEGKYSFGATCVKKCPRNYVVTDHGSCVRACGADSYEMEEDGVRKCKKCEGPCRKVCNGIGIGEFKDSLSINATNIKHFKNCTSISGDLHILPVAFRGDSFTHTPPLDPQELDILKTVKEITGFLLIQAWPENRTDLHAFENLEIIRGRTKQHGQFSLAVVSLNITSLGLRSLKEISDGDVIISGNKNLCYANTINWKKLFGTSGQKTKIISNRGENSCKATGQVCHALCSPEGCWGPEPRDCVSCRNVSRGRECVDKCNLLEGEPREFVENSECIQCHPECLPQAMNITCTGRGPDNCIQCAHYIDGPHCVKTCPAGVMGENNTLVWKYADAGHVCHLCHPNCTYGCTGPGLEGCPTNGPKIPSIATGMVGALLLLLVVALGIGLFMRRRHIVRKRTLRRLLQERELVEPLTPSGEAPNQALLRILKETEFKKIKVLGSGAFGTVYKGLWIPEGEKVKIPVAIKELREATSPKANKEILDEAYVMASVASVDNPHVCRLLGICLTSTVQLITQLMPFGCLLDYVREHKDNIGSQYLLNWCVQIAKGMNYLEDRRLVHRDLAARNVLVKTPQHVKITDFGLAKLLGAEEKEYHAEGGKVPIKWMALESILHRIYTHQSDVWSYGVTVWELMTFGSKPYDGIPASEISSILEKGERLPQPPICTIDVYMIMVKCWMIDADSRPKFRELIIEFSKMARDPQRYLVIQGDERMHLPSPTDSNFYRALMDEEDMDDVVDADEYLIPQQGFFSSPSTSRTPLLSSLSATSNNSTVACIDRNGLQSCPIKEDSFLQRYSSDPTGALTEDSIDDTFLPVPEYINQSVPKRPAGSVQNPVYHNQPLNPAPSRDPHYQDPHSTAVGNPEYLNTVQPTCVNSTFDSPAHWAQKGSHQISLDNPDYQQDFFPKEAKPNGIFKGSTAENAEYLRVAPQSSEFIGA

One may read the IC50 as the concentration at which inhibition is half-maximal. As for `C=CC(=O)Nc1cc(Nc2ncc(C(=O)OC)c(-c3cn4c5c(cccc35)CCC4)n2)c(OC)cc1N(C)CCN(C)C` [Example 44, methyl 2-((5-acrylamido-4-((2-(dimethylamino)ethyl)(methyl)amino)-2-methoxyphenyl)amino)-4-(5,6-dihydro-4H-pyrrolo[3,2,1-ij]quinolin-1-yl)pyrimidin-5-carboxylate], the IC50 in experiment [1], in experiment [2] and in experiment [3] was less than 100 nM each time. In experiment [4], the “EGFR exon 19 deletion and exon 20 T790M mutation IC50” value was “A (IC50 value for the indicated mutant below about 100 nM)”.

In the case of `C=CC(=O)Nc1cc(Nc2ncc(C(=O)O)c(-c3cn4c5c(cccc35)CCC4)n2)c(OC)cc1N(C)CCN(C)C` [Example 45, 2-((5-acrylamido-4-((2-(dimethylamino)ethyl)(methyl)amino)-2-methoxyphenyl)amino)-4-(5,6-dihydro-4H-pyrrolo[3,2,1-ij]quinolin-1-yl)pyrimidine-5-carboxylic acid], the IC50 in experiment [1], in experiment [2] and in experiment [3] was greater than 1000 nM in each case. In addition, the “EGFR exon 19 deletion and exon 20 T790M mutation IC50” value in experiment [4] is “D (IC50 value for the indicated mutant greater than about 1 μM)”.

In the case of `C=CC(=O)Nc1cc(Nc2ncc(-c3cnn(C)c3)c(-c3cn4c5c(cccc35)CCC4)n2)c(OC)cc1N(C)CCN(C)C` [Example 49, N-(5-((4-(5,6-dihydro-4H-pyrrolo[3,2,1-ij]quinolin-1-yl)-5-(1-methyl-1H-pyrazol-4-yl)pyrimidin-2-yl)amino)-2-((2-(dimethylamino)ethyl)(methyl)amino)-4-methoxyphenyl)acrylamide], the IC50 in experiment [1], in experiment [2] and in experiment [3] was less than 100 nM throughout. Also, the “EGFR exon 19 deletion and exon 20 T790M mutation IC50” value in experiment [4] is “A (IC50 value for the indicated mutant below about 100 nM)”.

With `C=CC(=O)Nc1cc(Nc2ncc(OCC#N)c(-c3cn4c5c(cccc35)CCC4)n2)c(OC)cc1N(C)CCN(C)C` [Example 50, N-(5-((5-(cyanomethoxy)-4-(5,6-dihydro-4H-pyrrolo[3,2,1-ij]quinolin-1-yl)pyrimidin-2-yl)amino)-2-((2-(dimethylamino)ethyl)(methyl)amino)-4-methoxyphenyl)acrylamide], the IC50 in experiment [1], in experiment [2] and in experiment [3] was less than 100 nM in each case. Further, the “EGFR exon 19 deletion and exon 20 T790M mutation IC50” value in experiment [4] is recorded as “A (IC50 value for the indicated mutant below about 100 nM)”.

With `C=CC(=O)Nc1cc(Nc2ncc(OCC(C)O)c(-c3cn4c5c(cccc35)CCC4)n2)c(OC)cc1N(C)CCN(C)C` (stereo not drawn) [Example 51, N-(5-((4-(5,6-dihydro-4H-pyrrolo[3,2,1-ij]quinolin-1-yl)-5-(2-hydroxypropoxy)pyrimidin-2-yl)amino)-2-((2-(dimethylamino)ethyl)(methyl)amino)-4-methoxyphenyl)acrylamide], the IC50 in experiment [1] is less than 100 nM; in experiment [2], less than 100 nM; in experiment [3] it was 100 to 500 nM. For the same compound, the “EGFR exon 19 deletion and exon 20 T790M mutation IC50” value in experiment [4] is recorded as “A (IC50 value for the indicated mutant below about 100 nM)”.

Turning to `C=CC(=O)Nc1cc(Nc2ncc(C#N)c(-c3cn4c5c(cccc35)N(C)C(=O)C4)n2)c(OC)cc1N(C)CCN(C)C` [Example 52, N-(5-((5-cyano-4-(1-methyl-2-oxo-2,3-dihydro-1H-pyrrolo[1,2,3-de]quinoxalin-6-yl)pyrimidin-2-yl)amino)-2-((2-(dimethylamino)ethyl)(methyl)amino)-4-methoxyphenyl)acrylamide], the IC50 in experiment [1], in experiment [2] and in experiment [3] was less than 100 nM throughout. Also, in experiment [4], the “EGFR exon 19 deletion and exon 20 T790M mutation IC50” value is listed as “A (IC50 value for the indicated mutant below about 100 nM)”.

In the case of `C=CC(=O)Nc1cc(Nc2ncc(-c3ccnn3C)c(-c3cn4c5c(cccc35)CCC4)n2)c(OC)cc1N(C)CCN(C)C` [Example 53, N-(5-((4-(5,6-dihydro-4H-pyrrolo[3,2,1-ij]quinolin-1-yl)-5-(1-methyl-1H-pyrazol-5-yl)pyrimidin-2-yl)amino)-2-((2-(dimethylamino)ethyl)(methyl)amino)-4-methoxyphenyl)acrylamide], the half-inhibitory concentration (IC50) in experiment [1], in experiment [2] and in experiment [3] was less than 100 nM throughout. Further, the “EGFR exon 19 deletion and exon 20 T790M mutation IC50” value in experiment [4] is given as “A (IC50 value for the indicated mutant below about 100 nM)”.

As for `C=CC(=O)Nc1cc(Nc2ncc(C(=O)NC)c(-c3cn4c5c(cccc35)CCC4)n2)c(OC)cc1N(C)CCN(C)C` [Example 54, 2-((5-acrylamido-4-((2-(dimethylamino)ethyl)(methyl)amino)-2-methoxyphenyl)amino)-4-(5,6-dihydro-4H-pyrrolo[3,2,1-ij]quinolin-1-yl)-N-methylpyrimidine-5-carboxamide], the concentration for half-maximal inhibition (IC50) in experiment [1] was 100 to 500 nM; in experiment [2], less than 100 nM; in experiment [3] it was 100 to 500 nM. Also, the “EGFR exon 19 deletion and exon 20 T790M mutation IC50” value in experiment [4] is recorded as “A (IC50 value for the indicated mutant below about 100 nM)”.

For `C=CC(=O)Nc1cc(Nc2ncc(C#N)c(-c3cn4c5c(cccc35)N(C)C(=O)C4)n2)c(OC)cc1N1CC[C@@H](N(C)C)C1` [Example 55, (R)-N-(5-((5-cyano-4-(1-methyl-2-oxo-2,3-dihydro-1H-pyrrolo[1,2,3-de]quinoxalin-6-yl)pyrimidin-2-yl)amino)-2-(3-(dimethylamino)pyrrolidin-1-yl)-4-methoxyphenyl)acrylamide], the IC50 in experiment [1] was 100 to 500 nM; in experiment [2], less than 100 nM; in experiment [3], 100 to 500 nM. Moreover, in experiment [4], the “EGFR exon 19 deletion and exon 20 T790M mutation IC50” value was “A (IC50 value for the indicated mutant below about 100 nM)”.

As for `C=CC(=O)Nc1cc(Nc2ncc(C#N)c(-c3cn4c5c(cccc35)N(C)CC4)n2)c(OC)cc1N(C)CCN(C)C` [Example 56, N-(5-((5-cyano-4-(1-methyl-2,3-dihydro-1H-pyrrolo[1,2,3-de]quinoxalin-6-yl)pyrimidin-2-yl)amino)-2-((2-(dimethylamino)ethyl)-(methyl)amino)-4-methoxyphenyl)acrylamide], the IC50 lay in the range of 500 to 1000 nM in experiment [1], 100 to 500 nM in experiment [2] and 500 to 1000 nM in experiment [3]. For the same compound, the “EGFR exon 19 deletion and exon 20 T790M mutation IC50” value in experiment [4] is “A (IC50 value for the indicated mutant below about 100 nM)”.

For the compound `C=CC(=O)Nc1cc(Nc2ncc(Cl)c(-c3nn4c5c(cccc35)OCC4)n2)c(OC)cc1N(C)CCN(C)C` [Example 57, N-(5-((5-chloro-4-(2,3-dihydro-[1,4]oxazino[2,3,4-hi]indazol-6-yl)pyrimidin-2-yl)amino)-2-((2-(dimethylamino)ethyl)(methyl)amino)-4-methoxyphenyl)acrylamide], the IC50 in experiment [1] is less than 100 nM; in experiment [2] it was less than 100 nM; in experiment [3], 100 to 500 nM. Also, the “EGFR exon 19 deletion and exon 20 T790M mutation IC50” value in experiment [4] was “A (IC50 value for the indicated mutant below about 100 nM)”.

For the compound `C=CC(=O)Nc1cc(Nc2ncc(SCCO)c(-c3cn4c5c(cccc35)CCC4)n2)c(OC)cc1N(C)CCN(C)C` [Example 58, N-(5-((4-(5,6-dihydro-4H-pyrrolo[3,2,1-ij]quinolin-1-yl)-5-((2-hydroxyethyl)thio)pyrimidin-2-yl)amino)-2-((2-(dimethylamino)ethyl)(methyl)amino)-4-methoxyphenyl)acrylamide], the IC50 in experiment [1] was less than 100 nM; in experiment [2], less than 100 nM; in experiment [3] it was 100 to 500 nM. Moreover, the “EGFR exon 19 deletion and exon 20 T790M mutation IC50” value in experiment [4] is “A (IC50 value for the indicated mutant below about 100 nM)”.
